Data reported in patent publication US20240358668A1, “METHODS AND CO[…] AM[…] CARD[…] USING (R)-2-AMINO-3-PH[…]” (AXSOME THERAPEUTICS, INC., priority 2021, published 2024).

System: participants with narcolepsy or OSA
Assay: 1-year OLE study: blood pressure, parent study baseline to OLE week 40
Type: in vivo, human
Conditions: Weight loss ≥5% at Week 40
Procedure: A 1-year open-label extension (OLE) study was performed with 374 participants to examined whether clinically significant weight loss (≥5%) in this population had favorable effects on biomarkers of cardiovascular risk compared to no such weight loss. The study measured changes in weight and BP (parent study baseline to OLE week 40) and clinical laboratory assessments (OLE baseline to week 40) in participants with narcolepsy (n=124) or OSA (n=250) who received solriamfetol at doses of 75, 150, or 300 mg/d.
We evaluated changes in weight and BP (parent study baseline to OLE week 40) and clinical laboratory assessments (OLE baseline to week 40) in participants with narcolepsy (n=124) or OSA (n=250) from the OLE study.

[1] = all doses, listed as solriamfetol

## NC(=O)OC[C@H](N)Cc1ccccc1 [Solriamfetol, (R)-2-amino-3-phenylpropyl carbamate]
75 mg/d
  DBP Change - Wk 40, Mean (SD): −3.8 mmHg
  DBP Change - Wk 40, Median: −3.8 mmHg
  DBP maximum changes from baseline to week 40: Decrease ≥10%: 0 n (%)
  DBP maximum changes from baseline to week 40: Decrease ≥20%: 0 n (%)
  DBP maximum changes from baseline to week 40: Decrease ≥30%: 0 n (%)
  DBP maximum changes from baseline to week 40: Increase ≥10%: 0 n (%)
  DBP maximum changes from baseline to week 40: Increase ≥20%: 0 n (%)
  DBP maximum changes from baseline to week 40: Increase ≥30%: 0 n (%)
  SBP Change - Wk 40, Mean (SD): −3.3 mmHg
  SBP Change - Wk 40, Median: −3.3 mmHg
  SBP maximum changes from baseline to week 40: Decrease ≥10%: 0 n (%)
  SBP maximum changes from baseline to week 40: Decrease ≥20%: 0 n (%)
  SBP maximum changes from baseline to week 40: Decrease ≥30%: 0 n (%)
  SBP maximum changes from baseline to week 40: Increase ≥10%: 0 n (%)
  SBP maximum changes from baseline to week 40: Increase ≥20%: 0 n (%)
  SBP maximum changes from baseline to week 40: Increase ≥30%: 0 n (%)
150 mg/d
  DBP Change - Wk 40, Mean (SD): −1.9 (9.9) mmHg
  DBP Change - Wk 40, Median: 0.5 mmHg
  DBP maximum changes from baseline to week 40: Decrease ≥10%: 5 (22.7) n (%)
  DBP maximum changes from baseline to week 40: Decrease ≥20%: 1 (4.5) n (%)
  DBP maximum changes from baseline to week 40: Decrease ≥30%: 0 n (%)
  DBP maximum changes from baseline to week 40: Increase ≥10%: 3 (13.6) n (%)
  DBP maximum changes from baseline to week 40: Increase ≥20%: 0 n (%)
  DBP maximum changes from baseline to week 40: Increase ≥30%: 0 n (%)
  SBP Change - Wk 40, Mean (SD): −4.5 (13.8) mmHg
  SBP Change - Wk 40, Median: −2.8 mmHg
  SBP maximum changes from baseline to week 40: Decrease ≥10%: 7 (31.8) n (%)
  SBP maximum changes from baseline to week 40: Decrease ≥20%: 1 (4.5) n (%)
  SBP maximum changes from baseline to week 40: Decrease ≥30%: 1 (4.5) n (%)
  SBP maximum changes from baseline to week 40: Increase ≥10%: 3 (13.6) n (%)
  SBP maximum changes from baseline to week 40: Increase ≥20%: 1 (4.5) n (%)
  SBP maximum changes from baseline to week 40: Increase ≥30%: 0 n (%)
300 mg/d
  DBP Change - Wk 40, Mean (SD): −0.8 (8.9) mmHg
  DBP Change - Wk 40, Median: −0.3 mmHg
  DBP maximum changes from baseline to week 40: Decrease ≥10%: 11 (15.1) n (%)
  DBP maximum changes from baseline to week 40: Decrease ≥20%: 3 (4.1) n (%)
  DBP maximum changes from baseline to week 40: Decrease ≥30%: 0 n (%)
  DBP maximum changes from baseline to week 40: Increase ≥10%: 8 (11.0) n (%)
  DBP maximum changes from baseline to week 40: Increase ≥20%: 0 n (%)
  DBP maximum changes from baseline to week 40: Increase ≥30%: 0 n (%)
  SBP Change - Wk 40, Mean (SD): −2.0 (10.8) mmHg
  SBP Change - Wk 40, Median: −1.8 mmHg
  SBP maximum changes from baseline to week 40: Decrease ≥10%: 20 (27.4) n (%)
  SBP maximum changes from baseline to week 40: Decrease ≥20%: 2 (2.7) n (%)
  SBP maximum changes from baseline to week 40: Decrease ≥30%: 0 n (%)
  SBP maximum changes from baseline to week 40: Increase ≥10%: 13 (17.8) n (%)
  SBP maximum changes from baseline to week 40: Increase ≥20%: 1 (1.4) n (%)
  SBP maximum changes from baseline to week 40: Increase ≥30%: 0 n (%)
All doses
  DBP Change - Wk 40, Median: −0.3 mmHg
  DBP maximum changes from baseline to week 40: Decrease ≥10%: 16 (16.7) n (%)
  DBP maximum changes from baseline to week 40: Decrease ≥20%: 4 (4.2) n (%)
  DBP maximum changes from baseline to week 40: Decrease ≥30%: 0 n (%)
  DBP maximum changes from baseline to week 40: Increase ≥10%: 11 (11.5) n (%)
  DBP maximum changes from baseline to week 40: Increase ≥20%: 0 n (%)
  DBP maximum changes from baseline to week 40: Increase ≥30%: 0 n (%)
  SBP Change - Wk 40, Median: −2.8 mmHg
  SBP maximum changes from baseline to week 40: Decrease ≥10%: 27 (28.1) n (%)
  SBP maximum changes from baseline to week 40: Decrease ≥20%: 3 (3.1) n (%)
  SBP maximum changes from baseline to week 40: Decrease ≥30%: 1 (1.0) n (%)
  SBP maximum changes from baseline to week 40: Increase ≥10%: 16 (16.7) n (%)
  SBP maximum changes from baseline to week 40: Increase ≥20%: 2 (2.1) n (%)
  SBP maximum changes from baseline to week 40: Increase ≥30%: 0 n (%)
All doses, listed as Solri
  DBP Change - Wk 40, Mean (SD): −1.0 (9.0) mmHg
  SBP Change - Wk 40, Mean (SD): −2.6 (11.4) mmHg
[1]
  DBP Change - Wk 40, Mean (SD): −1.0±9.0 mmHg
  SBP Change - Wk 40, Mean (SD): −2.6±11.4 mmHg
